The results in this text go back to US10849901B2, “Arf6 inhibitors and methods of synthesis and use thereof” (Navigen, Inc., priority 2014, dated 2020).

Like-named read-outs stand apart in the source and are kept apart here.

For one data set, the target named is Arf6 (Homo sapiens (Human), UniProt P62330). Description: Fluorometric assay for Arf6 nucleotide exchange catalyzed by ARNO Sec7 domain (GTP-BODIPY FL). In kind it is biochemical. The protocol: FIGS. 1A-1D: Fluorometric high throughput assay for Arf6 nucleotide exchange catalyzed by ARNO Sec7 domain. FIG. 1A: Principle of the assay. FIG. 1B: SDS-PAGE analysis of N-terminally His-tagged Arf6(14-175) and ARNO(50-255) purified from the E. coli cultures by immobilized metal affinity chromatography. FIG. 1C: Correlation between signal intensity and ARNO concentration. The assay was performed using 50 mM Tris-HCl, pH 7.5, 1 mM MgCl2, 0.01% TX-100, 1% DMSO, 50 nM GTP-BODIPY FL, supplemented with ARNO-Sec7 at indicated concentrations in the absence or in the presence of 0.2 μM Arf6-GDP. Fluorescence intensities were monitored using a Synergy 4 plate reader (BioTek) at the excitation and emission wavelengths of 490 nm and 520 nm, respectively. FIG. 1D: Time course of apparent inhibitory potency of GDP. The assay was performed in automated mode using a Matrix PlateMate liquid handler.
The primary biochemical assay uses a fluorometric assay for monitoring the replacement of bound nucleotide with a fluorogenic GTP derivative bearing a BODIPY FL moiety, allowing for the identification of compounds that can inhibit this exchange (see FIG. 1A). In certain embodiments, the methods disclosed herein may exploit the reduction of intramolecular fluorescence quenching of the modified nucleotide upon its binding to the target protein (see, e.g., McEwen D P, Gee K R, Kang H C, Neubig R R. Fluorescent BODIPY-GTP analogs: real-time measurement of nucleotide binding to G proteins. Anal Biochem. 2001 Apr. 1; 291(1): 109-17).
The fluorometric assay formatted for 96-well microtiter plates has passed quality control based on the following criteria: i) S/B ratio of 4-fold and Z′-factor of 0.61; ii) linear correlation between signal intensity and ARNO concentration (see FIG. 1C); iii) sufficiently reproducible inhibitory effects of the reference inhibitor GDP for assay durations up to at least 1 hour (see FIG. 1D); and iv) lack of apparent fluorescence quenchers among 400 randomly selected compounds. The assay is amenable to automation with a throughput of approximately 5,000 data points per 8 hours.

Data set [1] deals with collagen-induced arthritis. Description: Mouse model of collagen-induced arthritis. It counts as in vivo. As to conditions: mice, 14 days; Compound 4 10, 30, 60 mg/kg BID; Enbrel 10 mg/kg QD. The protocol:
In the experiment, mice were immunized with collagen on Days 1 and 21, and randomized to treatment groups on or around Day 28, then subject to fourteen days of treatment with a test compound. Vehicle (●), Compound 4 at 10 mg/kg (▴), Compound 4 at 30 mg/kg (▾), Compound 4 at 60 mg/kg (♦), or Enbrel (▪; 10 mg/kg) was given. Compound 4 was given twice daily (BID); Enbrel was given once daily (QD); and vehicle was given twice daily (BID).

In data set [2] the test system is oxygen-induced retinopathy. In words: Oxygen-induced retinopathy (OIR) in mice. In kind it is in vivo. To be noted: 5 μg intraocular Days 12 and 15, measured Day 17. As to the method: In the experiment, mice pups were placed in a 75% oxygen environment from Days 5-12. The mice were returned to a normal oxygen environment on Day 13. The test compounds were administered (5 μg) by intraocular injection on Days 12 and 15, and the area of neovascularization was measured on Day 17. Compound 38 was compared with SU4312 in oxygen-induced retinopathy (OIR) in mice (see FIG. 11). […]

Data set [3] has as its system LPS-induced acute lung injury. Description: LPS-induced acute lung injury in mice (BALF analysis). It counts as in vivo. As to conditions: 24 hours after LPS, Compound 38 60 mg/kg, dexamethasone 5 mg/kg. The protocol: In the experiment, LPS (5 mg/kg) was given by intra-tracheal instillation. Dexamethasone (5 mg/kg) was given as a positive control 2 hours after the LPS. Bronchoalveolar fluid (BALF) was analyzed for cell count and protein 24 hours after the LPS.

Data set [4] relates to VEGF-induced retinal permeability. Description: VEGF-induced retinal permeability in mice (Evans blue dye). In kind it is in vivo. The protocol:
In the experiment, VEGF (50 ng) and either Compound 38 or 65 (500 ng) or NAV-3745 (500 ng) were given to mice in a single intraocular injection. Evans blue dye (EBD) was given via IV approximately 6 hours after the injection, and the retinas were harvested after an additional 2 hours. Retinal permeability was measured on Day 2 after an overnight extraction of EBD in formamide, at OD 620-740 nm.
In the experiment, VEGF (50 ng) and the test compound were given to mice in a single intraocular injection. Avastin was given at a dose of 20 μg, Compound 38 at either 50 ng or 500 ng (as noted in FIG. 7), and SU4312 at 5 μg. As with the previous experiment, Evans blue dye (EBD) was given via IV approximately 6 hours after the injection, and the retinas were harvested after an additional 2 hours. Retinal permeability was measured on Day 2 after an overnight extraction of EBD in formamide, at OD 620-740 nm.

For data set [5] the test system is unchanged. Description: VEGF-induced retinal permeability in rats (Evans blue dye). In kind it is in vivo. As to conditions: rat, not told, ip, 60 mg/kg. As to the method: In the experiment, VEGF (500 ng) and Avastin (200 μg) were given to rats in a single intraocular injection on Day 1. Compound 38 (60 mg/kg) was administered by IP injection 1 hour prior to VEGF on Day 1. Rats were given Evans blue dye (EBD) via IV infusion on Day 2, and the retinas were harvested after an additional 1.5 hours. The retinas were dissected and incubated overnight in formamide. Vascular leak was calculated on Day 3.

Where [6] appears, read: 20 nM Arf6 assay, read-out: IC50 (μM) 20 nM Arf6.
The mark [7] stands for this setting: 200 nM Arf6 assay, read-out: IC50 (μM) 200 nM Arf6.

Arf6, sequence (P62330 14-175): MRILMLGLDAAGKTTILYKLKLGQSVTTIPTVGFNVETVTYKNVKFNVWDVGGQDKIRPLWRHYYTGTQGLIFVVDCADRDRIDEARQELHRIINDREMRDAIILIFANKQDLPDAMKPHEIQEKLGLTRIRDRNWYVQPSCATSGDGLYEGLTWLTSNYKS

For the compound `O=c1cc(-c2cccc(Oc3ccccc3)c2)[nH]c2c(-c3ccc(Cl)c(Cl)c3)c(C(F)(F)F)nn12` [Compound 4], the IC50 (as a rule, the midpoint of a concentration-inhibition curve) was found to be 0.52 µM at Arf6 (setting [6]) and 0.46 µM at Arf6 (setting [7]). Moreover, the “inflammation as measured by the arthritic index” value in data set [1] is “reduced inflammation”. The area of neovascularization result in data set [2] is recorded as “reduced the area of neovascularization”.
As to `C[C@@H]1C[C@H]2[C@@H]3CCC4=CC(=O)C=C[C@]4(C)[C@@]3(F)[C@@H](O)C[C@]2(C)[C@@]1(O)C(=O)CO` [dexamethasone, Dexamethasone, reference compound], in data set [3], the “number of cells in the lung fluid (BALF)” value was “reduced the number of cells” and the “protein concentration in the lung fluid (BALF)” value is reported as “reduced”.
Take Enbrel: the “inflammation as measured by the arthritic index” value in data set [1] is listed as “reduced inflammation”.
Take `COc1ccc(-c2c(Cc3ccccc3)nn3c(=O)cc(C)[nH]c23)cc1` [NAV-3745, reference compound]: in data set [4] (mice, 500 ng single intraocular injection with VEGF 50 ng (FIG. 6)), the VEGF-induced retinal permeability result was “no effect”.
As to SU4312 [reference compound], the VEGF-induced retinal permeability entry in data set [4] (mouse, not told) is “little effect”. Besides, the area of neovascularization result in data set [2] was “reduced the area of neovascularization”.
Consider `O=c1cc(-c2ccc([N+](=O)[O-])cc2)[nH]c2c(-c3ccc(Cl)cc3)c(-c3ccccc3)nn12` [Compound 11], for which, on Arf6 (setting [6]), the half-maximal inhibitory concentration (IC50) came to 0.96 µM.
In the case of `Cc1nn2c(=O)cc(C3CCCC3)[nH]c2c1-c1ccc(Cl)cc1` [Compound 106], the IC50 on Arf6 (setting [6]) was determined as 16 µM.
Turning to `O=c1cc(-c2ccccc2Br)[nH]c2c(-c3ccc(Cl)cc3)c(C(F)(F)F)nn12` [Compound 62], the IC50 on Arf6 (setting [6]) worked out at 3.3 µM.
For `CS(=O)(=O)c1ccc(-c2cc(=O)n3nc(C4CC4)c(-c4ccc(Cl)cc4)c3[nH]2)cc1` [Compound 91], the IC50 at Arf6 (setting [6]) came out at 7.9 µM.
On the same count and under the same terms, in the case of `CCC(C)(C)C1CCc2c(sc3c2C(=O)NC(c2cc(OC)c(O)c([N+](=O)[O-])c2)N3)C1` (centres unmarked) [Compound 113] it was 0.56 µM; in that of `O=c1cc(-c2ccc([N+](=O)[O-])cc2)[nH]c2c(-c3ccc(Cl)c(Cl)c3)c(-c3ccccc3)nn12` [Compound 5], 0.58 µM.
Still for that read-out and setting: in the case of `Cc1nn2c(=O)cc(-c3ccc([N+](=O)[O-])cc3)[nH]c2c1Cc1ccc(Cl)cc1` [Compound 81] it was 6 µM; in that of `O=c1cc(-c2ccc(Cl)cc2)[nH]c2c(-c3ccc(Cl)cc3)c(C(F)(F)F)nn12` [Compound 25], 1.4 µM.
With `Cc1nn2c(=O)cc(-c3ccc([N+](=O)[O-])cc3)[nH]c2c1-c1ccc(S(C)(=O)=O)cc1` [Compound 94], the IC50 at Arf6 (setting [6]) was 8.8 µM.
Regarding `Cc1nn2c(=O)cc(-c3ccc([N+](=O)[O-])cc3)[nH]c2c1-c1ccc(Cl)cc1` [Compound 39], the IC50 on Arf6 (setting [6]) was 1.9 µM; at Arf6 (setting [7]), 4.7 µM.
In the case of `O=c1cc(-c2ccc([N+](=O)[O-])cc2)[nH]c2c(-c3ccc(Cl)c(Cl)c3)c(C(F)(F)F)nn12` [Compound 7], the IC50 on Arf6 (setting [6]) came out at 0.66 µM.
Same read-out and setting: next, `N#Cc1c(=O)n(-c2ccc(Cl)cc2)nc2c(=O)n(N)c(-c3ccccc3Cl)cc12` [Compound 114]: 1.1 µM; `CC(=O)Nc1cccc(-c2cc(=O)n3nc(C(F)(F)F)c(-c4ccc(Cl)cc4)c3[nH]2)c1` [Compound 74]: 4.3 µM.
For Avastin, the VEGF-induced retinal permeability result was “reduced VEGF-induced retinal permeability” in data set [4] (mouse, not told) and “reduced VEGF-induced retinal permeability” in data set [5].
Turning to `Cn1cc(/C=C(\CC(=O)O)C2Nc3ccccc3S2)c(-c2ccc3c(c2)OCCCO3)n1` (centres unmarked) [Compound 128], the IC50 on Arf6 (setting [6]) was determined as 8.4 µM.
Take `Cc1nn2c(=O)cc(-c3ccc(Cl)cc3)[nH]c2c1-c1ccc(F)cc1` [Compound 105]: the IC50 at Arf6 (setting [7]) came out at 15 µM.
As to `COc1cc(-c2c(C)nn3c(=O)cc(-c4ccc([N+](=O)[O-])cc4)[nH]c23)ccc1Cl` [Compound 26], the IC50 at Arf6 (setting [6]) came to 1.4 µM.
Take `Cc1nn2c(=O)cc(-c3ccc(NC(=O)c4ccccc4)cc3)[nH]c2c1-c1ccc(Cl)cc1` [Compound 48]: on Arf6 (setting [6]), the IC50 stood at 2.4 µM.
On to `O=c1cc(-c2ccc(Oc3ccccc3)cc2)[nH]c2c(-c3ccc(Cl)c(Cl)c3)c(C(F)(F)F)nn12` [Compound 6], for which the IC50 on Arf6 (setting [6]) is 0.66 µM; on Arf6 (setting [7]), 1.1 µM.
As to `O=c1c2c(-c3ccc(Cl)cc3)csc2[nH]c(=S)n1Cc1ccccc1` [Compound 129], at Arf6 (setting [7]), the IC50 is 9.7 µM.
For the compound `COc1ccc(-c2c(C)nn3c(=O)cc(-c4ccc([N+](=O)[O-])cc4)[nH]c23)cc1` [Compound 109], the IC50 at Arf6 (setting [7]) is 17 µM.
Take `O=c1cc(-c2ccc([N+](=O)[O-])cc2)[nH]c2c(-c3ccc(Cl)cc3)c(Cc3cccnc3)nn12` [Compound 52]: the results for the IC50 at Arf6 (setting [6]) and on Arf6 (setting [7]) were 2.8 µM and 4.8 µM, respectively.
In the case of `O=c1cc(-c2cccc(Oc3ccccc3)c2)[nH]c2c(-c3ccc(Cl)c(Cl)c3)c(C3CC3)nn12` [Compound 14], on Arf6 (setting [6]), the IC50 came out at 1 µM.
Turning to `Cc1ccn2c(=O)cc(CSc3nc(C)cc(=O)[nH]3)nc2c1` [Compound 131], at Arf6 (setting [6]), the IC50 was determined as 11 µM.
For `O=c1c(-c2cccc3ccccc23)c(C(F)(F)F)oc2cc(O)ccc12` [Compound 140], on Arf6 (setting [7]), the half-inhibitory concentration (IC50) is 29 µM.
On to `Cc1c(Cc2ccccc2)nn2c(=O)cc(-c3ccc([N+](=O)[O-])cc3)[nH]c12` [Compound 98], for which, at Arf6 (setting [6]), the 50% inhibitory concentration (IC50) worked out at 11 µM.
Turning to `O=c1cc(-c2ccc(-c3ccncc3)cc2)[nH]c2c(-c3ccc(Cl)cc3)c(C(F)(F)F)nn12` [Compound 47], the IC50 at Arf6 (setting [6]) turned out to be 2.4 µM.
Still for that read-out and setting: next, `O=C1/C(=N/Nc2nc3ccccc3s2)C(c2ccccc2)=NN1c1nc(-c2ccccc2)cs1` [Compound 135]: 16 µM.
For the compound `O=c1cc(Cc2ccccc2)[nH]c2c(-c3ccc(Cl)c(Cl)c3)c(C(F)(F)F)nn12` [Compound 9], the values for the IC50 on Arf6 (setting [6]) and at Arf6 (setting [7]) were 0.84 µM and 1.6 µM, respectively.
